Results from US11773129B2, “Methods of preventing or treating atherosclerosis with inhibitors of specific isoenzymes of human neuraminidase” (THE GOVERNORS OF THE UNIVERSITY OF ALBERTA, priority 2017, dated 2023).

Key:
Type in all cases: biochemical
[1] = biological target: T1, NEU1 (Homo sapiens, UniProt Q99519); assay: IC50 inhibition assay using 4MU-NANA as the substrate, NEU1; conditions: 4MU-NANA as the substrate; read-out: IC50 NEU1
T1 construct: made in house; host or cells: HEK293 (lentiviral transduction), crude lysate
Protocol: Two weeks after transduction cells were harvested and a crude lysate showing ˜200 nmol/h mg of sialidase activity used in experiments.
Assays were performed with duplicates for each point and IC50 was obtained by plotting the data with Graphpad™ Prism 5.0.

[2] = biological target: T2, NEU4 (Homo sapiens, UniProt Q8WWR8); assay: IC50 inhibition assay using 4MU-NANA as the substrate, NEU4; design: GST; made in house; host or cells: E. coli; conditions: 4MU-NANA as the substrate; read-out: IC50 NEU4
T2 sequence (Q8WWR8 1-484): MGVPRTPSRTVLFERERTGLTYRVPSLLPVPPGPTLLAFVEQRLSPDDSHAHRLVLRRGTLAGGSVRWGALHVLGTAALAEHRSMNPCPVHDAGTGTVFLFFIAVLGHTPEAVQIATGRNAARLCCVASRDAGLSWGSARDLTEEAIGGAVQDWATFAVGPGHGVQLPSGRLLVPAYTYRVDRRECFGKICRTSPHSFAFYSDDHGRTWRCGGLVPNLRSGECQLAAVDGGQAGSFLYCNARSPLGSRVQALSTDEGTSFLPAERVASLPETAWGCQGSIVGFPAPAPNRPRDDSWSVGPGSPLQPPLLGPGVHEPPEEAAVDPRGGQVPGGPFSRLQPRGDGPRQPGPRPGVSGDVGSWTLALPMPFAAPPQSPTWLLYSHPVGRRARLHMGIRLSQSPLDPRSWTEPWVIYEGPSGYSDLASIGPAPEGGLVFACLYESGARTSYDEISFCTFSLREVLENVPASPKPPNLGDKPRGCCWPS

[3] = biological target: T3, NEU3 (Homo sapiens, UniProt Q9UQ49); assay: IC50 inhibition assay using 4MU-NANA as the substrate, NEU3; design: MBP (N); made in house; host or cells: E. coli; conditions: 4MU-NANA as the substrate; read-out: IC50 NEU3
T3 sequence (Q9UQ49 1-428): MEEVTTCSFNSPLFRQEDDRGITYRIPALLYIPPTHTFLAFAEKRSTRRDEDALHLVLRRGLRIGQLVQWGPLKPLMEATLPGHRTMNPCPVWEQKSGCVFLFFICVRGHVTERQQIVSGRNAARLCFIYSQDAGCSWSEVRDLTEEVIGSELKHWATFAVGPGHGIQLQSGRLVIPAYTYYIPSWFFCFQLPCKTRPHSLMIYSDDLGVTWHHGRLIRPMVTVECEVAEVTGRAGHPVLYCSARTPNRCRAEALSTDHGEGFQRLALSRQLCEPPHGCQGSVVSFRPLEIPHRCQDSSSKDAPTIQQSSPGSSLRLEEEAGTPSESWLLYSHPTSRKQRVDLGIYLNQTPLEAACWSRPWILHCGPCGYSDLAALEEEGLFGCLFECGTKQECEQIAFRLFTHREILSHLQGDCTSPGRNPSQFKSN

[4] = system: NEU1, NEU2, NEU3, NEU4; assay: Isoenzyme specificity/selectivity from 4MU-NANA IC50 across the four human neuraminidases; conditions: for Target: isoenzyme(s) the compound is specific for, dual (bispecific) when ratio of IC50 is about 3 or less

Row | Compound | IC50 [1] [µM] | IC50 [2] [µM] | IC50 [3] [µM] | Selectivity ([4]; from 4MU-NANA IC50, for the isoenzyme(s) in column Target) | Target [4]
1 | CC(=O)N[C@H]1[C@H]([C@H](O)[C@H](O)Cn2cc(-c3ccc(C(=O)O)cc3)nn2)OC(C(=O)O)=C[C@@H]1NC(=O)NCCC(=O)O [compound 18] | > 500 | 66 ± 16 | > 500 |  | NEU4
2 | CC(=O)N[C@@H]1C(O)C=C(C(=O)O)OC1C(O)C(O)Cn1cc(CNC(=O)c2ccccc2)nn1 (stereo partly drawn) [compound 26] | > 500 | 1.1 ± 0.2 | 15 ± 1 |  | NEU4
3 | CC(=O)N[C@@H]1C(O)C=C(C(=O)O)OC1C(O)C(O)Cn1cc(-c2ccc(NC(=O)c3ccccc3)cc2)nn1 (stereo partly drawn) [compound 27] | 190 ± 70 | 3.7 ± 0.4 | 2.9 ± 0.2 |  | NEU3/ NEU4
4 | CCC(=O)N[C@H]1[C@H]([C@H](O)[C@H](O)CO)OC(C(=O)O)=C[C@@H]1O [compound 29, 5-Propionamido-2,6-anhydro-3,5-dideoxy-D-glycero-D-galacto-non-2-enonic acid] | 18 ± 1 | 87 ± 18 | 60 ± 7 |  | NEU1
5 | CCCC(=O)N[C@@H]1C(O)C=C(C(=O)O)OC1C(O)C(O)CO (stereo partly drawn) [compound 30, 5-Butyramido-2,6-anhydro-3,5-dideoxy-n-glycero-n-galacto-non-2-enonic acid] | 8.4 ± 0.5 | 8.4 ± 0.4 | 15 ± 2 |  | NEU1/ NEU4
6 | CCCCCCC(=O)N[C@H]1[C@H]([C@H](O)[C@H](O)CO)OC(C(=O)O)=C[C@@H]1O [compound 33, 5-Heptanamido-2,6-anhydro-3,5-dideoxy-D-glycero-D-galacto-non-2-enonic acid] | 2.1 ± 0.2 | 470 ± 200 | 210 ± 70 |  | NEU1
7 | CC(C)C(=O)N[C@H]1[C@H]([C@H](O)[C@H](O)CO)OC(C(=O)O)=C[C@@H]1O [compound 34, 5-isobutyramido-2,6-anhydro-3,5-dideoxy-D-glycero-D-galacto-non-2-enonic acid] | 5.3 ± 0.8 | 71 ± 17 | > 500 |  | NEU1
8 | CC(C)CC(=O)N[C@H]1[C@H]([C@H](O)[C@H](O)CO)OC(C(=O)O)=C[C@@H]1O [compound 35, 5-(3-methylbutanamido)-2,6-anhydro-3,5-dideoxy-D-glycero-D-galacto-non-2-enonic acid] | 32 ± 5 | > 500 | > 500 |  | NEU1/ NEU2
9 | CC(C)CCC(=O)N[C@H]1[C@H]([C@H](O)[C@H](O)CO)OC(C(=O)O)=C[C@@H]1O [compound 36, 5-(4-Methylpentanamido)-2,6-anhydro-3,5-dideoxy-D-glycero-D-galacto-non-2-enonic acid] | 1.7 ± 0.1 | 370 ± 160 | 150 ± 20 |  | NEU1

Next, values leading:

Row | IC50 [1] [µM] | IC50 [2] [µM] | IC50 [3] [µM] | Selectivity ([4]; from 4MU-NANA IC50, for the isoenzyme(s) in column Target) | Target [4] | Compound
10 | 100 ± 40 | 1.3 ± 0.2 | 17 ± 2 | 10 | NEU4 | CC(=O)N[C@H]1[C@H]([C@H](O)[C@H](O)Cn2cc(-c3ccc(F)cc3)nn2)OC(C(=O)O)=C[C@@H]1O [7f]
11 | 140 ± 30 | 5 ± 0.9 | 3.3 ± 0.5 |  | NEU3/ NEU4 | CC(=O)N[C@H]1[C@H]([C@H](O)[C@H](O)Cn2cc(-c3ccc(C(F)(F)F)cc3)nn2)OC(C(=O)O)=C[C@@H]1O [7g]
12 | 240 ± 90 | 3 ± 0.3 | 1.1 ± 0.1 |  | NEU3/ NEU4 | CC(=O)N[C@@H]1C(O)C=C(C(=O)O)OC1C(O)C(O)Cn1cc(-c2ccc(C(=O)O)cc2)nn1 (stereo partly drawn) [7h]
13 | > 500 | 0.97 ± 0.24 | 1 ± 0.1 |  | NEU3/ NEU4 | CC(=O)N[C@H]1[C@H]([C@H](O)[C@H](O)Cn2cc(-c3ccc(Oc4ccccc4)cc3)nn2)OC(C(=O)O)=C[C@@H]1O [7j]
14 | > 500 | 24 ± 2 | 0.61 ± 0.1 |  | NEU3 | CC(=O)N[C@@H]1C(NC(=N)N)C=C(C(=O)O)OC1C(O)C(O)Cn1cc(-c2ccc(C(=O)O)cc2)nn1 (stereo partly drawn) [8a]
